The values that follow come from ChEMBL document CHEMBL1129748, “Structure-activity relationships of 4-hydroxy-3-nitroquinolin-2(1H)-ones as novel antagonists at the glycine site of N-methyl-D-aspartate receptors” (J Med Chem, 1996).

Test system in the first assay: not listed separately
In words: Compound was tested for steady-state selectivity index for inhibition at NMDAreceptor glycine sites was estimated by dividing Kb AMPA by Kb glycine. The class given is functional.
Conditions: not given
In the case of `O=[N+]([O-])c1c(O)nc2cc(Cl)c(Cl)c(Cl)c2c1O`, the Selectivity is 240.

The next assay concerns the target Glutamate NMDA receptor. In words: Compound was tested for inhibition of [3H]DCKA binding to NMDA receptor of rat brain membranes. The class given is cell membranes, Membrane.
Conditions: not given
The IC50 is the midpoint of a concentration-inhibition curve. High values mean weaker potency, low ones greater potency. In turn, `O=[N+]([O-])c1c(O)nc2cc(Cl)ccc2c1O` returned an IC50 of 1500 nM.

In a further assay the target is T1, Glutamate receptor ionotropic, AMPA (Rattus norvegicus) (UniProt P19491+P19492+P19493+P19490). In words: Compound was tested for inhibition of AMPA receptors was measured in oocytes expressing rat cerebral cortex poly(A)+ RNA.(Three cells were examined ). It is filed as functional, cell-based. Particulars: Oocyte.
Consider `O=[N+]([O-])c1c(O)nc2cc(Cl)c(Cl)c(Cl)c2c1O`, for which the Kb was 19000 nM.

A further assay deals with Glutamate NMDA receptor. In words: Inhibition of [3H]DCKA binding to NMDA receptor of rat brain membranes. It is filed as cell membranes, Membrane.
Conditions: not given
On to `Cc1cc(C)c2c(O)c([N+](=O)[O-])c(O)nc2c1`, for which the IC50 is 290 nM.

The molecule `O=Nc1c(O)c2cc(Cl)ccc2[nH]c1=O` came in with an IC50 of 3400 nM.

For the molecule `Oc1nc2cc(F)c(Cl)c(F)c2nc1O`, the half-inhibitory concentration (IC50) turned out to be 630 nM.

As for `Cc1cc(C)c2nc(O)c(O)nc2c1`, the IC50 is 2100 nM.

Take `O=[N+]([O-])c1c(O)nc2cc(Cl)c(Cl)c(Cl)c2c1O`: the IC50 was 220 nM.

Consider `O=Nc1c(O)c2c(F)c(F)c(F)c(F)c2[nH]c1=O`, for which the half-inhibitory concentration (IC50) stood at 3300 nM.

For `O=Nc1c(O)c2cc(F)c(Cl)c(F)c2[nH]c1=O`, the IC50 is 910 nM.

`Oc1nc2cc(Cl)c(Cl)cc2nc1O` [2,3-DIHYDROXY-6,7-DICHLOROQUINOXALINE]: the IC50 turned out to be 130 nM.

`O=[N+]([O-])c1c(O)nc2c(Cl)cccc2c1O`: the 50% inhibitory concentration (IC50) is over 100000 nM.

In turn, `O=Nc1c(O)nc2c(Cl)cccc2c1O` had a half-maximal inhibitory concentration (IC50) of over 100000 nM.

`Oc1nc2cc(Cl)cc(Cl)c2nc1O` displayed an IC50 of 280 nM.

`O=Nc1c(O)nc2cccc(Cl)c2c1O` gave an IC50 of 4400 nM.

Take `Oc1nc2ccccc2nc1O`: the IC50 came to 9800 nM.

With `O=[N+]([O-])c1c(O)nc2cc(Cl)c(Cl)cc2c1O`, the IC50 turned out to be 400 nM.

With `O=[N+]([O-])c1c(O)nc2cc(Cl)cc(Cl)c2c1O`, the IC50 was 220 nM.

Regarding `Cc1cc(C)c2c(O)c(N=O)c(=O)[nH]c2c1`, the 50% inhibitory concentration (IC50) is 37 nM.

`Oc1nc2cc(Cl)c(Cl)c(Cl)c2nc1O` came in with an IC50 of 30 nM.

For `O=Nc1c(O)nc2cc(Cl)c(Cl)c(Cl)c2c1O`, the IC50 was 7 nM.

In the case of `O=[N+]([O-])c1c(O)nc2ccccc2c1O`, the IC50 was found to be 34000 nM.

For `O=Nc1c(O)c2c(Cl)cc(Cl)cc2[nH]c1=O`, the IC50 stood at 33 nM.

`O=[N+]([O-])c1c(O)nc2c(F)c(F)c(F)c(F)c2c1O` registered an IC50 of over 100000 nM.

`O=Nc1c(O)nc2cc(Cl)c(Cl)cc2c1O` returned an IC50 of 12 nM.

For the molecule `O=[N+]([O-])c1c(O)nc2c(F)c(Cl)c(F)cc2c1O`, the IC50 worked out at 40000 nM.

In turn, `O=[N+]([O-])c1c(O)nc2ccc(Cl)cc2c1O` had a 50% inhibitory concentration (IC50) of over 100000 nM.

For `O=c1[nH]c2c(F)c(F)c(F)c(F)c2[nH]c1=O`, the IC50 came to 730 nM.

For `O=c1[nH]c2ccc(Cl)cc2[nH]c1=O`, the IC50 amounted to 1800 nM.

`O=[N+]([O-])c1c(O)nc2c(Cl)c(Cl)c(Cl)cc2c1O` showed an IC50 of over 100000 nM.

Molecule `O=Nc1c(O)nc2ccccc2c1O` returned an IC50 of 1400 nM.

As to `O=[N+]([O-])c1c(O)nc2cccc(Cl)c2c1O`, the IC50 worked out at 61000 nM.

`O=Nc1c(O)nc2cc(Cl)ccc2c1O` came in with an IC50 of 53 nM.

A further assay concerns the target T1, Glutamate receptor ionotropic, AMPA (Rattus norvegicus). In words: Compound was tested for inhibition of AMPA receptors was measured in oocytes expressing rat cerebral cortex poly(A)+ RNA.(Three cells were examined). Particulars: Oocyte. The class given is functional, cell-based.
For the molecule `O=[N+]([O-])c1c(O)nc2cc(Cl)cc(Cl)c2c1O`, the Kb stood at 37000 nM.

Test system in another assay: not listed separately
In words: Compound was tested for steady-state selectivity index for inhibition at NMDA receptor glycine sites was estimated by dividing Kb AMPA by Kb glycine. It is filed as functional.
Conditions: not given
For `Cc1cc(C)c2c(O)c([N+](=O)[O-])c(O)nc2c1`, the Selectivity was 164.

Turning to `O=[N+]([O-])c1c(O)nc2cc(Cl)cc(Cl)c2c1O`, the Selectivity is 118.
